Reference: PMC9570207, “Pharmacokinetics of Myo-Inositol in a Wistar Rat Animal Model” (International Journal of Molecular Sciences, 2022)
Where two headings read alike, the source gives them in different places.

Columns and labels:
[1] = design: method as in PMID 32650579; conditions: cited from earlier work
[2] = Pharmacokinetics of myo-inositol in serum after oral gavage, one-compartment PK model; type: in vivo, Wistar rat; conditions: 2 g/kg oral
Protocol: The experiment was performed on male Wistar rats (n = 9). We used male Wistar rats in our study because hormone changes throughout the female estrus cycle may have caused female rats to react differently, making them unpredictable and providing variable results during repeated experiments. All rats were 6 weeks old and had no morphological features deviating from the standard Wistar animal model. Animals were housed in a temperature-controlled room with a 12 h light/dark cycle and free access to water and food. The study was conducted in compliance with the Local Ethics Committee for Animal Experiments in Olsztyn. Each animal received a solution of myo-inositol (2 g/kg) in distilled water by oral gavage (Agnthos, curved gastric probe, 16G, 3 mm, 75 mm tip). The animals were fasted before the administration of myo-inositol (12 h since the last meal). Food was allowed for 2 h after administration of the compound. Access to water was unlimited. In order to reduce the amount of blood collected from a single animal, the animals were divided into three groups (n = 3).
For removing of proteins, 160 μL of acetonitrile (containing […] of xylitol, as an internal standard) was added to 50 μL of rat plasma and the sample was shaken for 5 min (1300 rpm, Vortex Genie 2, Scientific Industries, Bohemia, NY, USA). After centrifugation (20,000× g at 4 °C for 10 min), the supernatant was transferred into glass chromatographic vials and concentrated in a speed vacuum evaporator to dryness. Dry residues were derivatized with a mixture of trimethylsilylimidazole (TMSI) and pyridine (1:1, v/v). TMS-derivatives of myo-inositol were analyzed by the high-resolution gas chromatography method on a gas chromatograph GC2010Plus (Shimadzu, Tokyo, Japan) with a capillary column ZEBRON ZB-1 (15 m length, 0.25 mm diameter and 0.1 μm film thickness, Phenomenex, Torrance, CA, USA). The injector temperature was 325 °C and the initial column oven temperature was 150 °C. Helium was used as a carrier gas (at a flow rate of 1.18 mL min^−1). Afterwards, the sample injection (1 μL, in a split ratio 10:1) was ramped sequentially to 200 °C at a rate of 20 °C min^−1, to 300 °C at 30 °C min^−1 and to 335 °C at 20 °C min^−1. The final temperature was held for 2.42 min and the total time of analysis was 10 min. The detector was maintained at 350 °C. Myo-inositol was quantified by using the standard: myo-inositol from Sigma. The content of myo-inositol was calculated from the standard curves of appropriate components.
The data fitting was performed with NONMEM software (Version 7.3.0; ICON Development Solutions, Ellicot City, MD, USA) and the Gfortran compiler 9.0. NONMEM runs were executed using Wings for NONMEM (WFN730; http://wfn.sourceforge.net). The NONMEM data processing and plots were performed in Matlab Software (Version 0.1; The MathWorks, Natick, MA, USA). The schematic representation of the PK model is given in Figure 4. dA/dt=−ka∗AA(0)=DPO dX/dt=k−CL/F/V/F∗A+ka∗AX(0)=C0∗V/F where A and X denote the amount of myo-inositol in the absorption and central compartment, F denotes bioavailability, DPO denotes an oral dose of myo-inositol, ka denotes absorption rate constant, kin denotes an endogenous input of myo-inositol, CL denotes clearance, V denotes volume of distribution, and C0 denotes endogenous concentration of myo-inositol. CL and V were estimated as apparent due to uncertain bioavailability (CL/F and V/F). The steady-state concentration of myo-inositol implies the following relationship: k=C0∗CL/F
The concentration of myo-inositol in serum is given by: C=X/V/F
The observed concentrations (Cobs) were related to model predictions through the following equation (proportional residual error model): Cobs=C∗(1+ε) where ε is a normal random variable with standard deviation σ.

[3] = tested on: alkaline phosphatases from bovine intestinal mucosa; design: method as in doi:10.1016/S0928-0987(97)00019-5; conditions: bovine intestinal alkaline phosphatase; cited from earlier work
[4] = tested on: angiotensin-converting enzyme; design: method as in PMID 33113433; conditions: cited from earlier work
systolic blood pressure = tested on: systolic blood pressure; design: method as in PMID 33113433; conditions: 3 mg/kg, Wistar rats; cited from earlier work
[5] = rat, in vivo, po, 25 mg/kg; cited from earlier work
[6] = 100 mg/kg oral, male Wistar rats, liver

Structure (SMILES): CO[C@H]1[C@H](O)[C@@H](O)[C@@H](O)[C@H](O)[C@@H]1O [DP, D-pinitol]
- Time at which plasma DP level became detectable ([1]; 100 mg/kg oral, 18 h food-deprived male Wistar rats, plasma): 10 min
- Time at which liver concentration became detectable [1, 6]: 30 min
- Time of peak liver concentration [1, 6]: 120 min
- Time of plasma peak ([1]; 100 mg/kg oral, male Wistar rats, plasma): 1 h
- Time of peak in liver ([1]; 500 mg/kg oral, Wistar rats, liver): 120 min
- Time of peak in plasma ([1]; 500 mg/kg oral, Wistar rats, plasma): 120 min
- Accumulation in the liver ([1]; oral DP, Wistar rats, liver): no accumulation was detected
- Half-life time, liver ([1]; oral DP, Wistar rats, liver): 2.57 h
- Half-life time, plasma ([1]; oral DP, Wistar rats, plasma): 1.8 h
- Time after which completely cleared ([1]; oral DP, Wistar rats): 6 h

Structure (SMILES): O[C@H]1[C@H](O)[C@@H](O)[C@H](O)[C@@H](O)[C@H]1O [myo-inositol]
- Evidence of harm from the dosage during the study ([2]; Wistar rats): no significant evidence of harm
- Time after which the level of MI started to drop ([2]; Wistar rats): 2 h
- Time of highest peak of MI after administration ([2]; Wistar rats): 1 h
- Serum level approximately after 24 h compared with before administration ([2]; Wistar rats, 24 h): still higher than before administration
- k el ([2]; male, rat, serum, secondary parameter, Wistar rats, read-out: Kel, Elimination rate constant, (CL/F)/(V/F) (converted)): 4.72e-05 s⁻¹
- half-life ([2]; male, rat, serum, secondary parameter, Wistar rats, read-out: T0.5, Biological half-life, ln(2)/kel (converted)): 4.08 h
- Mean MI in Rat Serum ([2]; rat 1A (ID:1), group 1, times 0, 0.25, 0.5, 1, 24 h): 45.69 µg/mL
- Mean MI in Rat Serum ([2]; rat 1B (ID:4), group 2, times 0, 2, 4, 8, 12, 24 h): 45.70 µg/mL
- Mean MI in Rat Serum ([2]; rat 1C (ID:7), group 3, times 0, 1.5, 36, 48 h): 46.23 µg/mL
- Mean MI in Rat Serum ([2]; rat 2A (ID:2), group 1, times 0, 0.25, 0.5, 1, 24 h): 60.00 µg/mL
- Mean MI in Rat Serum ([2]; rat 2B (ID:5), group 2, times 0, 2, 4, 8, 12, 24 h): 46.23 µg/mL
- Mean MI in Rat Serum ([2]; rat 2C (ID:8), group 3, times 0, 1.5, 36, 48 h): 49.38 µg/mL
- Mean MI in Rat Serum ([2]; rat 3A (ID:3), group 1, times 0, 0.25, 0.5, 1, 24 h): 57.46 µg/mL
- Mean MI in Rat Serum ([2]; rat 3B (ID:6), group 2, times 0, 2, 4, 8, 12, 24 h): 39.86 µg/mL
- Mean MI in Rat Serum ([2]; rat 3C (ID:9), group 3, times 0, 1.5, 36, 48 h): 38.33 µg/mL
- AUC, Area under concentration–time curve, F·D/CL ([2]; secondary parameter, Wistar rats): 2.34 mg·h/L/kg

Structure (SMILES): O=P(O)(O)OC1[C@H](OP(=O)(O)O)[C@H](O)C(O)[C@H](O)[C@H]1OP(=O)(O)O (stereo partly drawn) [a-trinositol, d-myo-inositol 1,2,6-trisphosphate]
- Dephosphorylation by intestinal enzymes [3]: extensive dephosphorylation

Structure (SMILES): COC1[C@H](O)[C@H](O)C(O)[C@H](O)[C@H]1O (stereo partly drawn) [LB, L-(+)-bornesitol]
- Angiotensin-converting enzyme inhibition [4]: potent
- Effect on systolic blood pressure (systolic blood pressure): reduced the systolic blood pressure
- Dose proportionality of peak concentration and AUC [5]: non-linear pharmacokinetics
- Time to peak plasma concentration [5]: approximately 1 h
- half-life [5]: 1.202 to 2.0615 h
